Literature values as cited in patent US20230414692A1, “ETHANOLIC EXTRACT OF SEEDS OF SOLANUM MELONGENA, METHOD FOR OBTAINING IT, PHARMACEUTICAL COMPOSITION CONTAINING IT AND USE THEREOF AS AN ANTITUMOUR AGENT” (UNIVERSIDAD DE GRANADA, priority 2020, published 2023).

Legend:
[1] = tested on: NIE.115 neuroblastoma cell line; conditions: Cohen et al., 1996
[2] = tested on: 143B.TK osteosarcoma cell line; conditions: Cohen et al., 1996

C/C=C(/C)C(=O)O[C@H]1C[C@@H](OC(C)=O)[C@@]2(C)CO[C@H]3[C@H]4O[C@@H]5C[C@@H](c6ccoc6)C(C)=C5[C@@]4(C)[C@H](CC(=O)OC)[C@]1(C)[C@@H]32 [Salannin]
IC50 [1]: 133 ± 6 µM | IC50 [2]: 89 ± 12 µM
